Holding throughout (assay type): in vivo
In test [1] the test system is Ustilago nuda. In words: Ustilago nuda test (barley)/seed treatment/outdoor trial. The settings on record: summer barley, infected seed, outdoor trial, application rate 10 g/100 kg of seed, evaluated at begin to middle of blossom. The protocol:
Ustilago nuda Test (Barley)/Seed Treatment/Outdoor Trial Cereal species: Summer barley Amount of seed per plot: 40 g Plot size: 2 m^2 Number of repetitions: 3 Development stage: Begin to middle of blossom The active compounds are applied as a commercial formulation. For dressing, the preparation is initially charged in a dressing beaker and placed on a dressing shaker. The infected seed is added and shaken for about 2-3 min, until homogenization is achieved. After preparing the soil in a customary manner, outdoor sowing is carried out at a time which favours infection by the disease. Evaluation is carried out at a time when all the disease symptoms are clearly present. 0% means an efficacy which corresponds to that of the control, whereas an efficacy of 100% means that no infection is observed.

Test [2] relates to Pyrenophora graminea. In words: Pyrenophora graminea test (barley)/seed treatment/outdoor trial. The settings on record: summer barley, infected seed, outdoor trial, application rate 10 g/100 kg of seed, evaluated at begin of heading. How it is done: Pyrenophora graminea Test (Barley)/Seed Treatment/Outdoor Trial
Cereal species: Summer barley Plot size: 2 m^2 Amount of seed per plot: 40 g Number of repetitions: 3 Development stage at the time of evaluation: Begin of heading
The active compounds are applied as a commercial formulation.
For dressing, the preparation is initially charged in a dressing beaker and placed on a dressing shaker. The infected seed is added and shaken for about 2-3 min, until homogenization is achieved.
After preparing the soil in a customary manner, outdoor sowing is carried out at a time which favours infection by the disease.
Evaluation is carried out at a time when all the disease symptoms are clearly present. 0% means an efficacy which corresponds to that of the control, whereas an efficacy of 100% means that no infection is observed.

Test [3] deals with Rhizoctonia solani. In words: Rhizoctonia solani test (rice)/seed treatment. The settings on record: rice (cultivar Koshihikari), seed dressing, application rate 200 g/100 kg of seed, evaluated seven days after inoculation. How it is done:
Rhizoctonia solani Test (Rice)/Seed Treatment Rice seed (cultivar Koshihikari) is soaked at 15° C. in distilled water for 10 days, transferred into fresh water and, whilst being ventilated, soaked at 32° C. for 1 day. The seed is then dried at room temperature for a number of hours. 7.6 mg of the test substance are dissolved in 200 μl of acetone in a test vessel, an aliquot of seed (corresponding to 3.8 g of dry seed) is added, the samples mixed and the acetone is aspirated. The seed is sown on soil in a plastic vessel having a diameter of 7.5 cm and cultivated in an incubator at 32° C. with high atmospheric humidity in the dark for 3 days. The seedlings are then cultivated in a greenhouse at on average 21° C. for 2 weeks. In each case 5 seedlings are transferred into 5 plastic vessels having a diameter of 12 cm and cultivated in a greenhouse at on average 25° C. for 5-6 weeks. Mycelia of Rhizoctonia solani which had been grown on sterile barley corns are placed at the foot of the rice plant (5 cm from the soil surface) and incubated in a glass chamber with high atmospheric humidity at on average 27° C. Seven days after the inoculation, the degree of infection is evaluated and the efficacy is calculated. [table]

Test [4] relates to Rhizoctonia solani. In words: Rhizoctonia solani test (cotton)/seed treatment. The settings on record: dry seed dressing, application rate 50 g/100 kg of seed, evaluated after 7-8 days, method of Abbot. The protocol: Rhizoctonia solani Test (Cotton)/Seed Treatment The active compounds are applied as dry seed dressing. This is prepared by extending the active compounds in question with ground minerals to give a finely pulverulent mixture which ensures uniform distribution on the seed surface. To dress the seed, the seed together with the seed dressing is shaken for 3 minutes in a closed glass bottle. 2×50 seed corns are sown in standardized soil in seed trays. Perlite infected with Rhizoctonia solani (5 ml/seed tray) is scattered between the seed and covered with Lecaton, and the seeds are then cultivated in a greenhouse at a temperature of about 22° C. and 15 hours of light per day. After 7-8 days, all the emerged and diseased plants are evaluated. The effect is calculated by the method of Abbot. 0% means an efficacy which corresponds to that of the control, whereas an efficacy of 100% means that no infection is observed.

`Cc1nn(C)c(F)c1C(=O)Nc1ccccc1C(C)CC(C)C` (stereo not shown) [drawing 51]: the Efficacy in % in test [1] stood at 100%.

Regarding `CC(C)CC(C)c1sccc1NC(=O)c1cn(C)nc1C(F)(F)F` (stereo not shown) [drawing 52], the Efficacy in % in test [1] worked out at 99%.

`CC(C)CC(C)c1sccc1NC(=O)c1cn(C)nc1C(F)(F)F` (stereo not shown) [drawing 49]: the Efficacy in % in test [2] is on record as 97%.

For `Cc1nn(C)c(F)c1C(=O)Nc1ccccc1C(C)CC(C)C` (stereo not shown) [drawing 50], the Efficacy in % in test [3] is 91%.

`Cc1nn(C)c(F)c1C(=O)Nc1ccccc1C(C)CC(C)C` (stereo not shown) [drawing 46] yielded an Efficacy in % in test [4] of 100%.

In test [4], `CC(C)CC(C)c1sccc1NC(=O)c1cn(C)nc1C(F)(F)F` (stereo not shown) [drawing 47] showed an Efficacy in % of 100%.

`Cc1nn(C)c(F)c1C(=O)Nc1ccccc1C(C)CC(C)C` (stereo not shown) [drawing 48]: in test [2], the Efficacy in % is 97%.

Values taken from patent US20160227778A1, “SEED DRESSING FOR CONTROLLING PHYTOPATHOGENIC FUNGI” (BAYER INTELLECTUAL PROPERTY GMBH, priority 2004, published 2016).
